Source: the NIST ThermoML archive (doi:10.1016/j.fluid.2004.09.013)

Conditions: for mass density: Fluid (supercritical or subcritical phases), Vibrating tube method; for vapor or sublimation pressure: Liquid

C=C(C)C [2-methylpropene]
Conditions	mass density [kg/m3]
273.23 K, 615 kPa	619.2
273.23 K, 9987 kPa	631.07
273.23 K, 15001 kPa	636.64
273.23 K, 20001 kPa	641.78
273.23 K, 25007 kPa	646.58
273.23 K, 29992 kPa	651.06
273.23 K, 34986 kPa	655.29
273.23 K, 40007 kPa	659.29
273.24 K, 5018 kPa	625.04
278.24 K, 625 kPa	613.32
278.24 K, 9983 kPa	625.79
278.24 K, 29985 kPa	646.57
278.25 K, 4992 kPa	619.43
278.25 K, 14997 kPa	631.6
278.25 K, 19994 kPa	636.96
278.25 K, 24995 kPa	641.93
278.25 K, 35001 kPa	650.96
278.25 K, 39983 kPa	655.07
283.26 K, 623 kPa	607.34
283.26 K, 4980 kPa	613.78
283.26 K, 10001 kPa	620.49
283.26 K, 15002 kPa	626.55
283.26 K, 19992 kPa	632.11
283.26 K, 24993 kPa	637.28
283.26 K, 29994 kPa	642.09
283.26 K, 34999 kPa	646.62
283.26 K, 39994 kPa	650.87
288.27 K, 622 kPa	601.26
288.27 K, 4986 kPa	608.09
288.27 K, 9999 kPa	615.12
288.27 K, 15002 kPa	621.46
288.27 K, 20000 kPa	627.26
288.27 K, 24990 kPa	632.61
288.27 K, 30003 kPa	637.6
288.27 K, 35005 kPa	642.28
288.27 K, 40002 kPa	646.66
293.28 K, 624 kPa	595.08
293.28 K, 4999 kPa	602.33
293.28 K, 9991 kPa	609.69
293.28 K, 14989 kPa	616.34
293.28 K, 19994 kPa	622.38
293.28 K, 24993 kPa	627.94
293.28 K, 30001 kPa	633.11
293.28 K, 35003 kPa	637.94
293.28 K, 39987 kPa	642.44
298.3 K, 624 kPa	588.78
298.3 K, 4988 kPa	596.46
298.3 K, 9992 kPa	604.23
298.3 K, 14991 kPa	611.17
298.3 K, 20004 kPa	617.49
298.3 K, 25009 kPa	623.26
298.3 K, 30005 kPa	628.61
298.3 K, 34998 kPa	633.59
298.3 K, 40003 kPa	638.26
303.3 K, 638 kPa	582.38
303.3 K, 14996 kPa	606.02
303.3 K, 19992 kPa	612.59
303.3 K, 24991 kPa	618.59
303.3 K, 34996 kPa	629.29
303.3 K, 39999 kPa	634.1
303.31 K, 4990 kPa	590.52
303.31 K, 9994 kPa	598.73
303.31 K, 29988 kPa	624.13
308.31 K, 706 kPa	575.94
308.32 K, 4988 kPa	584.48
308.32 K, 9989 kPa	593.14
308.32 K, 14992 kPa	600.77
308.32 K, 19998 kPa	607.63
308.32 K, 24997 kPa	613.87
308.32 K, 30005 kPa	619.62
308.32 K, 34988 kPa	624.91
308.32 K, 40003 kPa	629.89
313.2 K, 951 kPa	569.89
313.2 K, 4993 kPa	578.43
313.2 K, 9992 kPa	587.58
313.2 K, 14986 kPa	595.55
313.2 K, 19994 kPa	602.7
313.2 K, 24994 kPa	609.17
313.2 K, 29987 kPa	615.08
313.2 K, 34991 kPa	620.58
313.2 K, 40013 kPa	625.7
318.21 K, 1034 kPa	563.28
318.21 K, 4991 kPa	572.22
318.21 K, 9993 kPa	581.88
318.21 K, 15000 kPa	590.28
318.21 K, 20002 kPa	597.73
318.21 K, 24998 kPa	604.47
318.21 K, 29993 kPa	610.61
318.21 K, 34995 kPa	616.28
318.21 K, 39991 kPa	621.54
323.22 K, 1130 kPa	556.5
323.22 K, 5015 kPa	565.89
323.22 K, 10019 kPa	576.14
323.22 K, 15017 kPa	584.94
323.22 K, 20010 kPa	592.7
323.22 K, 25016 kPa	599.69
323.22 K, 30006 kPa	606.04
323.22 K, 34990 kPa	611.88
328.22 K, 1213 kPa	549.51
328.22 K, 4997 kPa	559.34
328.22 K, 10001 kPa	570.24
328.22 K, 14997 kPa	579.49
328.22 K, 19998 kPa	587.62
328.22 K, 24989 kPa	594.87
328.22 K, 29993 kPa	601.47
328.22 K, 35002 kPa	607.53
333.22 K, 1303 kPa	542.34
333.22 K, 4983 kPa	552.65
333.22 K, 9997 kPa	564.28
333.22 K, 15001 kPa	574.03
333.22 K, 19998 kPa	582.51
333.22 K, 25001 kPa	590.09
333.22 K, 30012 kPa	596.94
333.22 K, 34994 kPa	603.17
338.22 K, 1401 kPa	534.97
338.22 K, 4983 kPa	545.83
338.22 K, 9985 kPa	558.2
338.22 K, 14988 kPa	568.49
338.22 K, 20002 kPa	577.4
338.22 K, 24995 kPa	585.25
338.22 K, 30004 kPa	592.35
338.22 K, 34989 kPa	598.79
338.23 K, 39972 kPa	604.69
343.22 K, 1507 kPa	527.38
343.22 K, 4990 kPa	538.84
343.22 K, 14984 kPa	562.89
343.22 K, 19992 kPa	572.21
343.22 K, 24986 kPa	580.39
343.23 K, 10002 kPa	552.06
343.23 K, 29994 kPa	587.74
343.23 K, 35010 kPa	594.44
348.23 K, 1624 kPa	519.55
348.23 K, 4982 kPa	531.6
348.23 K, 9996 kPa	545.8
348.23 K, 15003 kPa	557.28
348.23 K, 19988 kPa	566.99
348.23 K, 24994 kPa	575.52
348.23 K, 29995 kPa	583.14
348.23 K, 34998 kPa	590.02
353.23 K, 1750 kPa	511.45
353.23 K, 4999 kPa	524.22
353.23 K, 9995 kPa	539.41
353.23 K, 15002 kPa	551.55
353.23 K, 19988 kPa	561.74
353.23 K, 24993 kPa	570.61
353.23 K, 29992 kPa	578.51
353.23 K, 35002 kPa	585.65
358.23 K, 1880 kPa	503.02
358.23 K, 4995 kPa	516.51
358.23 K, 9992 kPa	532.9
358.23 K, 14994 kPa	545.74
358.23 K, 19987 kPa	556.44
358.23 K, 25000 kPa	565.71
358.23 K, 29992 kPa	573.87
358.23 K, 34986 kPa	581.23
363.23 K, 2029 kPa	494.29
363.23 K, 4995 kPa	508.53
363.23 K, 9990 kPa	526.24
363.23 K, 14992 kPa	539.87
363.23 K, 19984 kPa	551.08
363.23 K, 25007 kPa	560.75
363.23 K, 29987 kPa	569.21
363.23 K, 34996 kPa	576.84
368.23 K, 2186 kPa	485.16
368.23 K, 4992 kPa	500.2
368.23 K, 9984 kPa	519.43
368.23 K, 14990 kPa	533.92
368.23 K, 29990 kPa	564.54
368.24 K, 19992 kPa	545.7
368.24 K, 25001 kPa	555.77
368.24 K, 35000 kPa	572.42
373.23 K, 2351 kPa	475.57
373.23 K, 29996 kPa	559.86
373.23 K, 34996 kPa	567.99
373.24 K, 4995 kPa	491.52
373.24 K, 9984 kPa	512.47
373.24 K, 14991 kPa	527.88
373.24 K, 19998 kPa	540.27
373.24 K, 25004 kPa	550.75
373.24 K, 39995 kPa	575.36
378.24 K, 2531 kPa	465.5
378.24 K, 4999 kPa	482.41
378.24 K, 9996 kPa	505.39
378.24 K, 14983 kPa	521.73
378.24 K, 19996 kPa	534.78
378.24 K, 25004 kPa	545.72
378.24 K, 29995 kPa	555.17
378.24 K, 34988 kPa	563.54
383.24 K, 2689 kPa	454.37
383.24 K, 4984 kPa	472.67
383.24 K, 9995 kPa	498.07
383.24 K, 14986 kPa	515.53
383.24 K, 20004 kPa	529.26
383.24 K, 25006 kPa	540.65
383.24 K, 29986 kPa	550.43
383.24 K, 34992 kPa	559.1
388.24 K, 2901 kPa	443.01
388.24 K, 4994 kPa	462.48
388.24 K, 9997 kPa	490.56

Conditions	vapor or sublimation pressure [kPa]
285.97 K	206.58
297.46 K	297.04
307.88 K	404.2
315.82 K	503.41
324.78 K	633
328.93 K	704.67
337.82 K	871.92
348.26 K	1100.8
357.33 K	1343.9
364.25 K	1545.1
371.52 K	1784.7
380.19 K	2094.5
386.12 K	2332.7
